Assay results taken from US20100105688A1, “PHARMACEUTICAL COMPOSITIONS COMPRISING 3,5-DIAMINO-6-(2,3-DICHLOPHENYL)-1,2,4-TRIAZINE OR R(-)-2,4-DIAMINO-5-(2,3-DICHLOROPHENYL)-6-FLUOROMETHYL PYRIMIDINE AND AN NK1” (GLAXO GROUP LIMITED, priority 2007, published 2010).

Test system: rats
Assay: FCA (Freunds Complete Adjuvant) model of inflammatory hypersensitivity to pain (weight bearing)
Type: in vivo, rat
Method: • Naïve weight bearing readings were taken. The hypersensitivity to pain was measured using the Rat incapacitance tester (Linton instruments). This instrument is serviced once a year and should be regularly calibrated • All rats then received an intraplantar injection of 100 ul of FCA (Freund's complete adjuvant) into the left hind paw. The FCA was sonicated for 15 minutes prior to use. • Approximately 23 hrs after administration of the FCA, pre-dose weight bearing readings were taken. All animals were then ranked and randomised for dosing according to their FCA window (predose difference in grams−naïve difference in grams). […] Celebrex 10 mg/kg p.o. (positive control) as appropriate according to ranking and randomisation. • Animals were assessed in the weight bearing apparatus 1 hour post dose. • The study was blind and randomised by FCA window using the Latin square method. • % reversals were calculated by using the naïve, pre-dose and post dose values as follows: % Reversal=[(Pre-dose−Post-dose)/(Pre-dose−Naïve)]×100 • Graphs and ED50 were calculated where appropriate using Prism4. • Statistical analysis was carried out using ANOVA followed by calculating the least square means using the statistical package Statistica 6.1 • From the dose response curves the ED20 was determined for the combination study • Naïve weight bearing readings were taken. The hypersensitivity to pain was measured using the Rat incapacitance tester (Linton instruments). This instrument is serviced once a year and should be regularly calibrated • All rats then received an intraplantar injection of 100 ul of FCA (Freund's complete adjuvant) into the left hind paw. The FCA was sonicated for 15 minutes prior to use. • Approximately 23 hrs after administration of the FCA, pre-dose weight bearing readings were taken. All animals were then ranked and randomised for dosing according to their FCA window (predose difference in grams−naïve difference in grams). […] See table 5 for details of the groups • Animals were assessed in the weight bearing apparatus 1 hour post dose. • The study was blind and randomised by FCA window using the Latin square method. • % reversals were calculated by using the naïve, pre-dose and post dose values as follows: % Reversal=[(Pre-dose−Post-dose)/(Pre-dose−Naïve)]×100 • Statistical analysis was carried out using ANOVA followed by calculating the least square means using the statistical package Statistica 6.1 • ED50 and ED20 values and graphs were calculated using prism5 • Naïve weight bearing readings were taken. The hypersensitivity to pain was measured using the Rat incapacitance tester (Linton instruments). This instrument is serviced once a year and should be regularly calibrated • All rats then received an intraplantar injection of 100 ul of FCA (Freund's complete adjuvant) into the left hind paw. The FCA was sonicated for 15 minutes prior to use. • Approximately 23 hrs after administration of the FCA, pre-dose weight bearing readings were taken. All animals were then ranked and randomised for dosing according to their FCA window (predose difference in grams—naïve difference in grams). Rats with FCA window less than 30 g were excluded from the study. • Animals were then dosed with the following in a fixed dose ratio of 1.25:1 according to ranking and randomisation. (Table 6) […] Graphs and ED50 were calculated where appropriate using Prism5 • Statistical analysis was carried out using ANOVA followed by calculating the least square means using the statistical package Statistica 6.1

For Nc1nnc(-c2cccc(Cl)c2Cl)c(N)n1 [ENa7, 3,5-diamino-6-(2,3-dichlorophenyl)-1,2,4-triazine, reference compound], the ED50 (Rattus norvegicus, po, compound alone, 0.1-3.0 mg/kg p.o. as printed, 1 hour post dose, range in brackets as printed, read-out: ED50, reversal of the FCA induced hypersensitivity) was 0.35 mg/kg, the “reversal of the FCA induced hypersensitivity” value (compound alone, 0.1-3.0 mg/kg, 1 hour post dose) was “dose related reversal” and the “effect on the FCA induced hypersensitivity” value (each compound alone at its ED20 dose (ENa7 0.1 mg/kg p.o.; ENK6 0.08 mg/kg s.c.)) was “no significant effect”.
